Source: PubChem BioAssay (NCI)
Where “and” joins values, the source holds several entries; their conditions need not be identical. Equal values may be shown once.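 Following 48 hours of exposure in 96-well plates, responses at five concentrations were used to interpolate endpoints linearly. Here, GI50 denotes the concentration required for 50% inhibition of growth. TGI denotes the concentration required for complete inhibition of growth.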

Assays:
Assay in all cases: NCI tumour cell line growth inhibition, 48 h; in the data active = GI50 below about 0.43 µM; inactive = the rest
[1] = tested on: LXFL 529 NSCLC
[2] = tested on: OVCAR-5 ovarian
[3] = tested on: SK-OV-3 ovarian
[4] = tested on: KM12 colon
[5] = tested on: UO-31 renal
[6] = tested on: HCC-2998 colon
[7] = tested on: EKVX NSCLC
[8] = tested on: OVCAR-3 ovarian
[9] = tested on: DMS 114 small cell lung
[10] = tested on: CCRF-CEM leukemia

C[CH2][Sn]([CH2]C)([O]C(=O)c1ccccc1OC)[O][Sn]([CH2]C)([CH2]C)[O]C(=O)c1ccccc1OC
> 100 µM: TGI [2] | TGI [3] | TGI [4] | TGI [5] | TGI [6] | TGI [7] | TGI [8] | TGI [9] | TGI [10]
28.5 µM: TGI [1]
inactive: GI50 [1] 15.1 µM | GI50 [2] > 100 µM | GI50 [3] > 100 µM | GI50 [4] > 100 µM | GI50 [5] > 100 µM | GI50 [6] > 100 µM | GI50 [7] > 100 µM | GI50 [8] > 100 µM | GI50 [9] 30 µM | GI50 [10] 41.2 µM

Cc1ccc(C)c(N2C(=O)C(=O)C(c3nc4ccccc4s3)/C(=N/NC(=O)NN)C2=O)c1 (stereo unspecified)
> 100 µM: TGI [1] | TGI [3] | TGI [4] | TGI [5] | TGI [6] | TGI [7] | TGI [8] | TGI [9] | TGI [10]

CC(C)(Br)C(=O)C(Br)Br
30.6 µM and 9.58 µM: TGI [2]
5.87 µM: TGI [1]
31.3 µM and 69.8 µM: TGI [3]
18.6 µM and 10.6 µM: TGI [8]
26.8 µM and 9.94 µM: TGI [7]
inactive: GI50 [2] 5.26 µM | GI50 [3] 32.8 µM | GI50 [4] 5.8 µM | GI50 [5] 5.5 µM | GI50 [7] 5.23 µM | GI50 [8] 5.76 µM | GI50 [10] 2.72 µM
31.4 µM and 9.8 µM: TGI [5]
30.8 µM: TGI [6]
18.1 µM: TGI [9]
30.8 µM and 11.7 µM: TGI [4]

C=CNC(=O)NC(=O)CSc1nnc(-c2ccccc2NC(=O)C(F)(F)F)c(=O)[nH]1
> 100 µM: TGI [1] | TGI [2] | TGI [3] | TGI [4] | TGI [5] | TGI [6] | TGI [7] | TGI [8] | TGI [10]
43.1 µM: TGI [9]

COCOCC/C=C/C=O
> 100 µM: TGI [1] | TGI [2] | TGI [3] | TGI [4] | TGI [5] | TGI [6] | TGI [7] | TGI [8] | TGI [9] | TGI [10]

NC(=O)NNC(=O)NC12CC3CC(CC(C3)C1)C2
> 100 µM: TGI [1] | TGI [2] | TGI [3] | TGI [4] | TGI [5] | TGI [6] | TGI [7] | TGI [8] | TGI [9] | TGI [10]

N#CC(c1ccccn1)c1nc2ccccc2[nH]1 (stereo unspecified)
> 100 µM: TGI [1] | TGI [2] | TGI [3] | TGI [5] | TGI [6] | TGI [7] | TGI [8] | TGI [9] | TGI [10]

N#CC(C#N)c1ccc(C(=O)N2CCC[C@H]2CO)cc1
> 100 µM: TGI [1] | TGI [2] | TGI [3] | TGI [4] | TGI [5] | TGI [6] | TGI [7] | TGI [8] | TGI [9] | TGI [10]

O=S(=O)(/C=C/C(=C/c1ccccc1)S(=O)(=O)c1ccccc1)c1ccccc1
3.32 µM: TGI [9]
3.19 µM: TGI [1]
3.22 µM: TGI [5]
3.45 µM: TGI [6]
5.42 µM: TGI [4]
3.13 µM: TGI [8]
3.05 µM: TGI [10]
3.15 µM: TGI [7]
2.79 µM: TGI [3]

O=c1[nH]cc(F)c(=O)n1C1OC(CO)C(O)C1O (stereo unspecified)
> 100 µM: TGI [1] | TGI [2] | TGI [3] | TGI [4] | TGI [5] | TGI [6] | TGI [7] | TGI [8] | TGI [9] | TGI [10]

NC(=O)c1csc(C2OC(COP(=O)(O)CP(=O)(O)OCC3OC(n4cnc5c(N)ncnc54)C(O)C3O)C(O)C2O)n1 (stereo unspecified)
> 100 µM: TGI [1] | TGI [2] | TGI [3] | TGI [4] | TGI [5] | TGI [6] | TGI [7] | TGI [8] | TGI [9] | TGI [10]

CCCCCCCCCCCCC(Br)C(=O)NCC(N)=O (stereo unspecified)
32.1 µM: TGI [8]
42 µM: TGI [7]
21.5 µM: TGI [1]
28.8 µM: TGI [4]
59.2 µM: TGI [3]
66.3 µM: TGI [10]
31 µM: TGI [6]
57.3 µM: TGI [2]
6.92 µM: TGI [5]
15.2 µM: TGI [9]

CC(C)=CC(=O)N(C)C1C2CN3CCC(O2)C13 (stereo unspecified)
> 100 µM: TGI [1] | TGI [2] | TGI [3] | TGI [4] | TGI [5] | TGI [6] | TGI [7] | TGI [8] | TGI [9] | TGI [10]

COCCNC(=O)C1C(=O)C(=O)N(CCOC)C1=O (stereo unspecified)
> 100 µM: TGI [1] | TGI [2] | TGI [3] | TGI [5] | TGI [6] | TGI [7] | TGI [8] | TGI [9] | TGI [10]

O=C(O)/C=C/c1nc2ccccc2c(=O)o1
> 100 µM: TGI [1] | TGI [3] | TGI [4] | TGI [5] | TGI [6] | TGI [7] | TGI [8] | TGI [9] | TGI [10]
